Data: ChEMBL document CHEMBL4229339, “Total syntheses and stereochemical reassignments of mollenines A and B” (Bioorg Med Chem Lett, 2018)
The source made the active and inactive calls.

Key:
[1] = tested on: Candida albicans; assay: Antifungal activity against Candida albicans at 5 uM; type: functional, organism-based
[2] = tested on: Bacillus cereus; assay: Antibacterial activity against Bacillus cereus at 5 uM; type: functional, organism-based
[3] = tested on: Escherichia coli; assay: Antibacterial activity against Escherichia coli at 5 uM; type: functional, organism-based
[4] = species on record: Homo sapiens; assay: Cytotoxicity against human HeLa/Fucci cells at 5 uM; type: functional, cell-based

Measured: Activity

CC(C)=CC[C@@]12C[C@H]3C(=O)O[C@@H](CC(C)C)C(=O)N3[C@@H]1Nc1ccccc12
inactive: all assays above

CC(C)=CCC12CC3C(=O)OC(CC(C)C)C(=O)N3C1Nc1ccccc12 (single isomer, unassigned; (+))
inactive: all assays above

CC(C)=CC[C@@]12C[C@@H]3C(=O)N[C@@H](CC(C)C)C(=O)N3[C@@H]1Nc1ccccc12
inactive: all assays above

CC(C)=CC[C@@]12C[C@H]3C(=O)O[C@@H](CC(C)C)C(=O)N3[C@@H]1N(C=O)c1ccccc12
inactive: all assays above

CC(C)=CCC12CC3C(=O)OC(CC(C)C)C(=O)N3C1Nc1ccccc12 (stereo in doubt; (+)-7)
inactive: all assays above

CC(C)=CC[C@@]12C[C@H]3C(=O)O[C@H](CC(C)C)C(=O)N3[C@@H]1Nc1ccccc12
inactive: all assays above
